The results in this text go back to patent US20240148821A1, “PHARMACEUTICAL USE OF CYCLIC PEPTIDE COMPOUND” (CHUGAI SEIYAKU KABUSHIKI KAISHA, priority 2021, published 2024).

pIC50: −log10 of the molar value. Numbered stars: 1 amine (or outer) side, 2 acyl side, 3 side chain; on linkers, the order of the positions; unused ones are H or OH. Bridge positions count the residues as written; N and C are the ends. Square brackets hold non-standard residues; d marks the D form. Peptide text beside a SMILES is read from it. * marks the point of attachment. hPhe(3,5-F2-4-CF3) = N[C@@H](CCc1cc(F)c(C(F)(F)F)c(F)c1)C(=O)O; hPhe(3-Cl-4-CF3) = N[C@@H](CCc1ccc(C(F)(F)F)c(Cl)c1)C(=O)O; hPhe(3-F,4-CF3) = N[C@@H](CCc1ccc(C(F)(F)F)c(F)c1)C(=O)O; NEtPhe(4-CF3) = CCN[C@@H](Cc1ccc(C(F)(F)F)cc1)C(=O)O; NMePhe(4-Cl) = CN[C@@H](Cc1ccc(Cl)cc1)C(=O)O; NMePhe(4-Me) = CN[C@@H](Cc1ccc(C)cc1)C(=O)O; NMedβ3hAla = C[C@H](CC(=O)[*:2])N(C)[*:1]; NMeGly(cPent) = CN[C@H](C(=O)O)C1CCCC1; NMeCha = CN[C@@H](CC1CCCCC1)C(=O)O; Hyp = O=C(O)[C@@H]1C[C@@H](O)CN1; NMeChg = CN[C@H](C(=O)O)C1CCCCC1; NMeI = CC[C@H](C)[C@H](NC)C(=O)O; NMeT = CN[C@H](C(=O)O)[C@@H](C)O; NMeE = CN[C@@H](CCC(=O)O)C(=O)O; NMeD = CN[C@@H](CC(=O)O)C(=O)O; NMeL = CN[C@@H](CC(C)C)C(=O)O; d(β3hA) = C[C@@H](N)CC(=O)O; Azetidin(1-yl) = C1CN(*)C1; NMeS = CN[C@@H](CO)C(=O)O; Morpholide = C1CN(*)CCO1; NMeA = CN[C@@H](C)C(=O)O; NMeAib = CNC(C)(C)C(=O)O; Piperidide = C1CCN(*)CC1; Ac5c = NC1(C(=O)O)CCCC1; Aze = O=C(O)[C@@H]1CCN1; Ac4c = NC1(C(=O)O)CCC1; CH2CMe2OH = CC(C)(O)C*; Aib = CC(C)(N)C(=O)O; Isopentyl = CC(C)CC*; NEtG = CCNCC(=O)O; Sar = CNCC(=O)O Bounds are passed on as bounds.

Assay [1] addresses protein-protein interaction between Kras and SOS1 (biotin-tagged human Kras loaded with GDP, His-tagged human SOS1) (Homo sapiens (Human), UniProt P01116, G12D). Description: Protein-protein interaction inhibition between Kras and SOS1 (KrasG12D-SOS PPI) using AlphaScreen.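 Further: kras produced in E. coli, Ni-coupled donor beads and streptavidin acceptor beads, excitation 680 nm with emission detected at 520–620 nm via singlet oxygen transfer.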 The assay is classed as biochemical. Conditions: AlphaScreen; biotin-tagged human Kras loaded with GDP, His-tagged human SOS1; read-out: KRAS G12D-SOS PPI IC50.

Assay [2] has as its system Human pancreatic cancer cell line AsPC-1 (G12D mutation Kras). The assay is described as follows: AsPC-1 cell growth inhibition (AsPC-1 CGI). The assay is classed as cell-based. Conditions: read-out: AsPC-1 cell growth inhibition, 50% growth inhibitory concentration (IC50 value); 96 hours, CellTiter-Glo, values classified in ranges.

For `CC[C@H](C)[C@@H]1NC(=O)[C@H](CC(C)C)N(C)C(=O)C[C@@H](C)N(C)C(=O)[C@H]([C@@H](C)CC)N(C)C(=O)C2(CCCC2)NC(=O)[C@@H]2CCCN2C(=O)[C@H](CCc2ccc(C(F)(F)F)c(F)c2)NC(=O)CN(C)C(=O)[C@H](Cc2ccc(C)cc2)N(C)C(=O)[C@@H]2CCN2C(=O)[C@H](C)N(C)C1=O` [Compound 404] (cyclo([Ac5c][NMeI][NMedβ3hAla][NMeL]I[NMeA][Aze][NMePhe(4-Me)][Sar][hPhe(3-F,4-CF3)]P)), the pIC50 in assay [1] was 8.32; in assay [2] it was at least 7.70.

As for `CC[C@H](C)[C@@H]1NC(=O)[C@H](CC(C)C)N(C)C(=O)C[C@@H](C(=O)N2CCCCC2)N(C)C(=O)[C@H](C2CCCCC2)N(C)C(=O)C2(CCCC2)NC(=O)[C@H](CCC(=O)NC)N(C)C(=O)[C@H](CCc2ccc(C(F)(F)F)c(Cl)c2)NC(=O)CN(C)C(=O)[C@H](CC2CCCCC2)N(C)C(=O)CN(C)C(=O)CN(C)C1=O` [Compound 590] ([NMeL]I[Sar][Sar][NMeCha][Sar][hPhe(3-Cl-4-CF3)][NMeE](NHMe)[Ac5c][NMeChg][NMeD]-Piperidide; lactam N-11), the pIC50 is 8.85 in assay [1] and below 6.30 in assay [2].

`CC[C@H](C)[C@@H]1NC(=O)[C@H](CC(C)C)N(C)C(=O)C[C@@H](C(=O)N2CCCCC2)N(C)C(=O)[C@H]([C@@H](C)O)N(C)C(=O)C2(CCCC2)NC(=O)[C@@H]2CCCN2C(=O)[C@H](CCc2ccc(C(F)(F)F)c(Cl)c2)NC(=O)CN(C)C(=O)[C@H](CC2CCCCC2)N(C)C(=O)[C@@H]2CCN2C(=O)[C@H](C)N(C)C1=O` [Compound 228] ([NMeL]I[NMeA][Aze][NMeCha][Sar][hPhe(3-Cl-4-CF3)]P[Ac5c][NMeT][NMeD]-Piperidide; lactam N-11): the pIC50 in assay [1] was 7.62; in assay [2], below 6.30.

Take `CCO[C@@H]1C[C@H]2C(=O)NC3(CCCC3)C(=O)N(C)[C@@H](C3CCCC3)C(=O)N(C)[C@H](C(=O)N3CCC3)CC(=O)N(C)[C@@H](CC(C)C)C(=O)N[C@@H]([C@@H](C)CC)C(=O)N(C)[C@@H](C)C(=O)N3CC[C@H]3C(=O)N(C)[C@@H](CC3CCCCC3)C(=O)N(C)CC(=O)N[C@@H](CCc3ccc(C(F)(F)F)c(Cl)c3)C(=O)N2C1` [Compound 1158] ([NMeL]I[NMeA][Aze][NMeCha][Sar][hPhe(3-Cl-4-CF3)][Hyp](Et)[Ac5c][NMeGly(cPent)][NMeD]-{Azetidin(1-yl)}; lactam N-11): the pIC50 in assay [1] is 9.28; in assay [2], at least 7.70.

`CC[C@H](C)[C@@H]1NC(=O)[C@H](COCC(C)(C)O)N(C)C(=O)C[C@@H](C)NC(=O)[C@H](CC(C)C)N(C)C(=O)C(C)(C)NC(=O)[C@H](CC(C)C)N(C)C(=O)[C@H](CCc2ccc(C(F)(F)F)c(Cl)c2)NC(=O)CN(C)C(=O)[C@H](COCCC(C)C)N(C)C(=O)CN(C)C(=O)CN(CC)C1=O` [Compound 1476] (cyclo([Aib][NMeL][d(β3hA)][NMeS](CH2CMe2OH)I[NEtG][Sar][NMeS](Isopentyl)[Sar][hPhe(3-Cl-4-CF3)][NMeL])): the figures for the pIC50 in assay [1] and in assay [2] were 7.34 and below 6.30, respectively.

For the compound `CC[C@H](C)[C@@H]1NC(=O)[C@H](CC(C)C)N(C)C(=O)C[C@@H](C(=O)N2CCOCC2)N(C)C(=O)[C@H](C2CCCC2)N(C)C(=O)C2(CCCC2)NC(=O)[C@@H]2CCCN2C(=O)[C@H](CCc2cc(F)c(C(F)(F)F)c(F)c2)NC(=O)CN(C)C(=O)[C@H](C2CCCC2)N(C)C(=O)[C@@H]2CCN2C(=O)[C@H](C)N(C)C1=O` [Compound 1336] ([NMeL]I[NMeA][Aze][NMeGly(cPent)][Sar][hPhe(3,5-F2-4-CF3)]P[Ac5c][NMeGly(cPent)][NMeD]-Morpholide; lactam N-11), the pIC50 in assay [1] was 9.18; in assay [2] it was at least 7.70.

`CC[C@H](C)[C@@H]1NC(=O)[C@H](CC(C)C)N(C)C(=O)C[C@@H](C)N(C)C(=O)[C@H](CC(C)C)NC(=O)C(C)(C)N(C)C(=O)[C@H](CC(C)C)NC(=O)[C@H](CCc2cc(F)c(C(F)(F)F)c(F)c2)NC(=O)CN(C)C(=O)[C@H](Cc2ccc(Cl)cc2)N(C)C(=O)CN(C)C(=O)CN(C)C1=O` [Compound 687] (cyclo(I[Sar][Sar][NMePhe(4-Cl)][Sar][hPhe(3,5-F2-4-CF3)]L[NMeAib]L[NMedβ3hAla][NMeL])): the figures for the pIC50 in assay [1] and in assay [2] were 7.80 and below 6.30, respectively.

In the case of `CCO[C@@H]1C[C@H]2C(=O)NC3(CCC3)C(=O)N(C)[C@@H](C3CCCC3)C(=O)N(C)[C@H](C)CC(=O)N(C)[C@@H](CC(C)C)C(=O)N[C@@H]([C@@H](C)CC)C(=O)N(C)[C@@H](C)C(=O)N3CC[C@H]3C(=O)N(CC)[C@@H](Cc3ccc(C(F)(F)F)cc3)C(=O)N(C)CC(=O)N[C@@H](CCc3cc(F)c(C(F)(F)F)c(F)c3)C(=O)N2C1` [Compound 132] (cyclo([Ac4c][NMeGly(cPent)][NMedβ3hAla][NMeL]I[NMeA][Aze][NEtPhe(4-CF3)][Sar][hPhe(3,5-F2-4-CF3)][Hyp](Et))), the pIC50 in assay [1] was 9.02; in assay [2], at least 7.70.
